Consider one compound from patent US20120277296A1, “Selective CB2 Receptor Agonists for Use in the Prevention or Treatment of Alcoholic Liver Disease” (priority 2009, published 2012).

Molecules are shown by their SMILES. “Also recorded” adds a separate entry of the source.

The test system of test [1] is WT mice fed EtOH (EtOH-induced hepatic steatosis). Nature of the test: Chronic ethanol feeding model (modified Lieber-De Carli diet, 10 days): hepatic steatosis. The format is in vivo, mouse. The settings on record: JWH-133 3 mg/kg daily intraperitoneal during 10 day ethanol feeding, vs. vehicle. How it is done:
(§1) Animals. Female mice (8-10 week old) were used for the experiments and included wild type (WT) C57B1/6J mice (Janvier, France) and mice with a targeted mutation of the Cnr2 gene (Buckley et al. 2000). Homozygous Cnr2−/− animals were obtained from heterozygous Cnr2+/− mice that were backcrossed with WT C57Bl/6J animals over 10 generations, and further intercrossed to obtain homozygous animals. Genotyping was performed on tail genomic DNA using QuantiTect™ SYBR® Green PCR kit (Qiagen). Animals were housed in temperature and humidity controlled rooms, kept on a 12-h light/dark cycle and provided unrestricted amounts of food and water. Animal procedures were conducted in accordance with French government policies (Services Vétérinaires de la Santé et de la Production Animale, Ministère de l'Agriculture).
(§2) Chronic exposure to ethanol. […] Body weight and food intake were measured daily.
(§3) The impact of the CB2 agonist JWH-133 or its vehicle was evaluated in WT mice that were treated with a daily intraperitoneal injection of JWH-133 (3 mg/kg) or its vehicle during the 10 day feeding with ethanol. […] Body weight and food intake were measured daily. […]
Hepatic triglyceride quantification. […] Triglycerides were quantified with a triglyceride determination kit (Sigma), on liver samples from 10-15 animals per group.

A further test has as its system TNF-α mRNA expression. Nature of the test: Chronic ethanol feeding model: hepatic inflammation, TNF-α mRNA expression by RT-PCR. The settings on record: WT mice fed EtOH, JWH-133 3 mg/kg daily intraperitoneal during 10 day ethanol feeding, vs. vehicle. The format is in vivo, mouse. As for the experimental part:
as §1, with “Animal procedures were conducted in accordance with French government policies (Services Vétérinaires de la Santé et de la Production Animale, Ministère de l'Agriculture).” left out
as §2, §3
RNA preparation and RT-PCR. […] Quantitative real time-PCR was carried out on a Light Cycler (Roche Diagnostics), as previously described (Julien et al. 2005). Oligonucleotide primers (MWG Biotech) for the following mouse genes were used: mouse Rn18S; mouse Tnf, PCR amplified products were analyzed on a 2% agarose gel and sequenced.

Regarding `CCCC(C)(C)c1ccc2c(c1)OC(C)(C)[C@@H]1CC=C(C)C[C@@H]21` [JWH-133, (6aR,10aR)-3-(1,1-dimethylbutyl)-6a,7,10,10a-tetrahydro-6,6,9-trimethyl-6Hdibenzo[b,d]pyran], in test [1], the hepatic triglyceride content entry was “decrease; also recorded: strongly reduced” and the liver/body weight ratio entry is listed as “decrease; also recorded: strongly reduced”. The “TNF-α mRNA expression in liver” value in the test with TNF-α mRNA expression was “prevents the increase; also recorded: reduced TNF-α mRNA levels to control levels”.
